Measurements as given in US6362369B1, “Phthalic acid diamide derivatives fluorine-containing aniline compounds as starting material, agricultural and horticultural insecticides, and a method for application of the insecticides” (Nihon Nohyaku Co., Ltd., priority 1997, dated 2002).

Experiments:
Type in all cases: in vivo
[1] = system: diamondback moth (Plutella xylostella); test: Insecticidal effect on diamondback moth (Test Example 1); details: for Insecticidal effect (Test Example 1), judged from mortality / Insecticidal effect, Test Example 1: diamondback moth; for Insecticidal effect (Test Example 1), judged from mortality: judged by the criterion of Test Example 1; for Insecticidal effect on diamondback moth (Test Example 1), judged grade: mortality judged according to the criterion shown in Test Example 1
How it was run: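 Triplicate groups of 10 insects: eggs laid on Chinese cabbage seedling by adults, seedling immersed then air-dried, kept at 25° C. Day-6 hatch counts gave mortality, rated by criterion.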

[2] = system: rice leafroller (Cnaphalocrocis medinalis); test: Insecticidal effect on rice leafroller (Test Example 3); details: 500 ppm, 25° C., humidity 70%; for Insecticidal effect (Test Example 3), judged from mortality / Insecticidal effect on rice leafroller (Test Example 3), judged grade: rice lamina dip; for Insecticidal effect (Test Example 3), judged from mortality: 4 days after inoculation; for Insecticidal effect, Test Example 3: rice lamina immersed; for Insecticidal effect, Test Example 3 / Insecticidal effect on rice leafroller (Test Example 3), judged grade: four days after inoculation; for Insecticidal effect on rice leafroller (Test Example 3), judged grade: third-instar larvae
How it was run: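 Insecticidal effect is judged by a predefined criterion from dead/alive counts four days after infesting air-dried lamina with third-instar larvae, kept on moistened filter paper at 25° C, 70% humidity.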

[3] = system: common cutworm (Spodoptera Litura); test: Insecticidal effect on common cutworm (Test Example 2); details: 500 ppm, 25° C.; for Insecticidal effect (Test Example 2), judged from mortality / Insecticidal effect on common cutworm (Test Example 2), judged grade: cabbage leaf dip; for Insecticidal effect (Test Example 2), judged from mortality: 8 days after inoculation; for Insecticidal effect, Test Example 2: cabbage leaf immersed; for Insecticidal effect, Test Example 2 / Insecticidal effect on common cutworm (Test Example 2), judged grade: eight days after inoculation; for Insecticidal effect on common cutworm (Test Example 2), judged grade: second-instar larvae
How it was run: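 2nd-instar larvae on air-dried treatment, closed dish, 25° C; dead/alive counted at day 8. Mortality calculated, graded by criterion. 3 × 10 insects.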

[4] = third-instar larvae of rice leafroller
[5] = second-instar larvae of common cutworm
[6] = mortality judged by criterion of Test Example 1
[7] = rice leafroller third-instar larvae
[8] = common cutworm second-instar larvae
[9] = judged by the mortality criterion of Test Example 1

Row | SMILES | Insecticidal effect (Test Example 1), judged from mortality [1] | Insecticidal effect (Test Example 3), judged from mortality [2, 4] | Insecticidal effect (Test Example 2), judged from mortality [3, 5] | Insecticidal effect, Test Example 1 [1, 6] | Insecticidal effect, Test Example 3 [2, 7] | Insecticidal effect, Test Example 2 [3, 8] | further results
1 | CCc1cc(C(F)(F)C(F)(F)F)ccc1NC(=O)c1cccc(Cl)c1C(=O)NC(C)CC (stereo not drawn) [compound 1501] | A (100) | A (100) | A (100) | – | – | – | –
2 | CCCNC(=O)c1c(I)cccc1C(=O)Nc1ccc(OC(F)F)cc1C [compound 1450] | A (100) | A (100) | A (100) | – | – | – | –
3 | CC(C)(C)NC(=O)c1c(Cl)cccc1C(=O)Nc1ccc(C(F)(F)C(F)(F)F)cc1 [compound 1447] | A (100) | A (100) | A (100) | – | – | – | –
4 | Cc1cc(C(F)(F)C(F)(F)F)ccc1NC(=O)c1cccc(F)c1C(=O)NC(C)(C)C [compound 1505] | A (100) | A (100) | A (100) | – | – | – | –
5 | CCCN(CC)C(=O)c1c(I)cccc1C(=O)Nc1ccc(OC(F)(F)F)cc1C [compound 1574] | A (100) | A (100) | A (100) | – | – | – | –
6 | CC(C)(C)NC(=O)c1c(I)cccc1C(=O)Nc1ccc(OC(F)(F)F)cc1Cl [compound 1023] | – | – | – | A (100) | A (100) | A (100) | –
7 | CCC(CO)NC(=O)c1c(Cl)cccc1C(=O)Nc1ccc(C(F)(F)C(F)(F)F)cc1C (stereo not drawn) [compound 1316] | – | – | – | A (100) | A (100) | A (100) | –
8 | Cc1cc(C(F)(F)C(F)(F)F)ccc1NC(=O)c1cccc(C(F)(F)F)c1C(=O)NC(C)(C)C [compound 1231] | – | – | – | A (100) | A (100) | A (100) | –
9 | Cc1c(Cl)cccc1NC(=O)c1cccc(Br)c1C(=O)NC(C)C [compound 266] | – | – | – | – | – | – | Insecticidal effect, Test Example 1 [1, 9]: A (100); Insecticidal effect, Test Example 3 [2, 4]: A (100); Insecticidal effect, Test Example 2 [3, 5]: A (100)
10 | C#Cc1cccc(C(=O)NC(C)C)c1C(=O)Nc1ccc(Cl)cc1C [compound 801] | – | – | – | – | – | – | Insecticidal effect on diamondback moth (Test Example 1), judged grade [1]: A (100); Insecticidal effect on rice leafroller (Test Example 3), judged grade [2]: D (79-50); Insecticidal effect on common cutworm (Test Example 2), judged grade [3]: A (100)
11 | CC(C)(C)NC(=O)c1c(I)cccc1C(=O)Nc1ccc2oc(-c3ccc(C(F)(F)F)cc3)nc2c1 [compound 1174] | – | – | – | A (100) | A (100) | A (100) | –
12 | CC(C)NC(=O)c1c(C(=O)Nc2ccc3c(c2)OC(F)C(F)(F)O3)cccc1[N+](=O)[O-] (stereo not drawn) [compound 1146] | – | – | – | A (100) | A (100) | C (89-80) | –
13 | Cc1cc(C(F)(F)C(F)(F)F)c(Cl)cc1NC(=O)c1cccc(I)c1C(=O)NC(C)C [compound 1653] | A (100) | A (100) | A (100) | – | – | – | –
14 | Cc1cc(C(F)(F)C(F)(F)F)ccc1NC(=O)c1cccc(F)c1C(=O)NC(C)C [compound 495] | – | – | – | – | – | – | Insecticidal effect on diamondback moth (Test Example 1), judged grade [1]: A (100); Insecticidal effect on rice leafroller (Test Example 3), judged grade [2]: A (100); Insecticidal effect on common cutworm (Test Example 2), judged grade [3]: A (100)
15 | CC(C)NC(=O)c1c(I)cccc1C(=O)Nc1ccc(C(F)(F)C(F)(F)F)cc1F [compound 1385] | – | – | – | A (100) | A (100) | A (100) | –
16 | Cc1cc(C(F)(F)C(F)(F)F)ccc1NC(=O)c1cccc(Cl)c1C(=O)NCc1cccc(Cl)c1Cl [compound 1353] | – | – | – | A (100) | A (100) | A (100) | –
17 | Cc1cc(OC(F)(F)C(F)(Br)C(F)(F)F)ccc1NC(=O)c1ccccc1C(=O)NC(C)C (stereo not drawn) [compound 66] | – | – | – | – | – | – | Insecticidal effect, Test Example 1 [1, 9]: A (100); Insecticidal effect, Test Example 3 [2, 4]: B (99-90); Insecticidal effect, Test Example 2 [3, 5]: A (100)
18 | Cc1cc(OC(F)F)c(Cl)cc1NC(=O)c1cccc(F)c1C(=O)NC(C)C [compound 517] | – | – | – | – | – | – | Insecticidal effect on diamondback moth (Test Example 1), judged grade [1]: A (100); Insecticidal effect on rice leafroller (Test Example 3), judged grade [2]: A (100); Insecticidal effect on common cutworm (Test Example 2), judged grade [3]: A (100)
19 | Cc1cc(C(F)(F)C(F)(F)F)ccc1NC(=O)c1cccc(Cl)c1C(=O)NC(C)(C)/C=C/c1ccccc1 [compound 1604] | A (100) | A (100) | A (100) | – | – | – | –
20 | Cc1cc(C(F)(F)C(F)(F)F)ccc1NC(=O)c1cccc(I)c1C(=O)N1CCCCCC1 [compound 1117] | – | – | – | A (100) | A (100) | A (100) | –
21 | CCC(C)NC(=O)c1c(Cl)cccc1C(=O)Nc1ccc(C(F)(F)C(F)(F)F)cc1Cl (stereo not drawn) [compound 1499] | A (100) | A (100) | A (100) | – | – | – | –
22 | CCN(CC)C(=O)c1c(I)cccc1C(=O)Nc1ccc(C(F)(F)C(F)(F)F)cc1Cl [compound 1560] | A (100) | A (100) | A (100) | – | – | – | –
23 | CCN(CC)C(=O)c1c(Cl)cccc1C(=O)Nc1ccc(Cl)cc1C [compound 1542] | A (100) | A (100) | D (79-50) | – | – | – | –
24 | CC(C)NC(=O)c1c(Cl)cccc1C(=O)Nc1ccc(C(F)(F)F)cc1Cl [compound 125] | – | – | – | – | – | – | Insecticidal effect, Test Example 1 [1, 9]: A (100); Insecticidal effect, Test Example 3 [2, 4]: A (100); Insecticidal effect, Test Example 2 [3, 5]: B (99-90)
25 | Cc1cc(OC(F)F)ccc1NC(=O)c1ccccc1C(=O)NC(C)(C)C [compound 1018] | – | – | – | A (100) | A (100) | D (79-50) | –
26 | Cc1cc(C(F)(F)C(F)(F)F)ccc1NC(=O)c1cccc(I)c1C(=O)NC(C)C [compound 372, 3-iodo-N^1-(4-pentafluoroethyl-2-methylphenyl)-N^2-isopropyl-phthalic acid diamide] | – | – | – | – | – | – | Insecticidal effect, Test Example 1 [1, 9]: A (100); Insecticidal effect, Test Example 3 [2, 4]: A (100); Insecticidal effect, Test Example 2 [3, 5]: A (100)
27 | CC(C)(C)NC(=O)c1c(I)cccc1C(=O)Nc1ccc(SC(F)(F)Br)cc1 [compound 1115] | – | – | – | A (100) | A (100) | A (100) | –
28 | CC(C)(C)NC(=O)c1ccccc1C(=O)Nc1ccc2c(c1)OC(F)(F)C(F)O2 (stereo not drawn) [compound 1165] | – | – | – | A (100) | A (100) | A (100) | –
29 | CC(C)(C)NC(=O)c1c(I)cccc1C(=O)Nc1ccc2c(c1)OC(F)(F)O2 [compound 1105] | – | – | – | A (100) | A (100) | A (100) | –
30 | CC(C)NC(=O)c1c(Cl)cccc1C(=O)Nc1ccc2oc(C(F)(F)C(F)(F)C(F)(F)F)nc2c1 [compound 1638] | A (100) | A (100) | A (100) | – | – | – | –
